# Reference: patent US20240316047A1, “INHIBITORS OF RNA HELICASE DHX9 AND USES THEREOF” (ACCENT THERAPEUTICS, INC., priority 2022, published 2024)
# Target: Human recombinant DHX9 protein (Homo sapiens (Human), UniProt Q08211)
# Test: DHX9 ATPase assay (ADP-Glo)
# Format: biochemical
# Conditions: for IC50: read-out: DHX9 Biochemical Inflection Point
# Human recombinant DHX9 protein, sequence (Q08211 whole entry): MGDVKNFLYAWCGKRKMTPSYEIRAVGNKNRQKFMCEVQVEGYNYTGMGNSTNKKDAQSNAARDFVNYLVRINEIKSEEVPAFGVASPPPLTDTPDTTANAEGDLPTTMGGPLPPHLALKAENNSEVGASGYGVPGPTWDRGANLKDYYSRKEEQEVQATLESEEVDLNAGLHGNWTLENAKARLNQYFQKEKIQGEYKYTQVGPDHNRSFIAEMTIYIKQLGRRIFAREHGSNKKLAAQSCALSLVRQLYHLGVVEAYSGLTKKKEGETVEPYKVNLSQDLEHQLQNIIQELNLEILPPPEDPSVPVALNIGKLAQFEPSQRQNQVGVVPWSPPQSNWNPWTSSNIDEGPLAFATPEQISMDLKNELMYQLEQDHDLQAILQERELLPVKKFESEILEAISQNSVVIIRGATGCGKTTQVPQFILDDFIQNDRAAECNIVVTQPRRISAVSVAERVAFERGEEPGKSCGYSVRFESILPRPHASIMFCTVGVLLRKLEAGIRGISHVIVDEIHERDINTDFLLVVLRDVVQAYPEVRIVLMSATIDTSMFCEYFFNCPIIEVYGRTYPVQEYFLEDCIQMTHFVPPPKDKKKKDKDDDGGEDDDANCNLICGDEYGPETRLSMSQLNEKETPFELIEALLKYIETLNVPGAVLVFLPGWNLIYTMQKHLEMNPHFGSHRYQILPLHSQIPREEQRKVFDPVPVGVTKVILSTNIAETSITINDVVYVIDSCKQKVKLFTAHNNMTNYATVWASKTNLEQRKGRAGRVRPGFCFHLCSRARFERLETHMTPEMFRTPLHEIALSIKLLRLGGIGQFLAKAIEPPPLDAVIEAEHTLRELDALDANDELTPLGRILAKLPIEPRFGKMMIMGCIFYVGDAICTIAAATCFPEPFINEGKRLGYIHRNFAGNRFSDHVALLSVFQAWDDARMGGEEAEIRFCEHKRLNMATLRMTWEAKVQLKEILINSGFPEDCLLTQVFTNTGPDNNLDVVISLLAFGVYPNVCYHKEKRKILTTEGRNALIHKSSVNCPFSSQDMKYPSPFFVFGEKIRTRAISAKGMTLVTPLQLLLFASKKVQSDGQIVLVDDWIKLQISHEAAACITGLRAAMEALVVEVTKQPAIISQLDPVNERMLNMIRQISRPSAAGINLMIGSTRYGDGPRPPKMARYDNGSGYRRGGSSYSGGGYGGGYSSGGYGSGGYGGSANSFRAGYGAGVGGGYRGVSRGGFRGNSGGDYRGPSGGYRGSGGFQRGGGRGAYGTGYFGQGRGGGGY
Compound,DHX9 Biochemical Max Inhibition,IC50 [nM]
Cc1cc(N2CCC(F)(F)CC2)cnc1-c1cc(C(=O)Nc2cc(Cl)cc(NS(C)(=O)=O)c2)cn1C [Example 600],79.3,41.6
COC(=O)N1CCN(c2cnc(-c3cc(C(=O)Nc4cc(Cl)cc(NS(C)(=O)=O)c4)sc3C)c(C)c2)CC1 [Example 601],72.2,21.2
"Cn1cc(C(=O)Nc2cc(Cl)cc(NS(C)(=O)=O)c2)cc1-c1ncc(F)cc1-c1cncc(F)c1 [Example 604, N-(3-chloro-5-methanesulfonamidophenyl)-5-{5,5′-difluoro-[3,3′-bipyridin]-2-yl}-1-methylpyrrole-3-carboxamide]",69.1,37
Cc1sc(C(=O)Nc2cc(Cl)cc(NS(C)(=O)=O)c2)cc1-c1ncc(F)cc1-c1ccc(=O)n(C)c1 [Example 606],71.8,26
"Cc1sc(C(=O)Nc2cc(Cl)cc(NS(C)(=O)=O)c2)cc1-c1ncc(OC2CN(C)C2)cn1 [Example 609, N-(3-chloro-5-methanesulfonamidophenyl)-5-methyl-4-{5-[(1-methylazetidin-3-yl)oxy]pyrimidin-2-yl}thiophene-2-carboxamide]",72.7,3
CN1CC(Oc2cnc(-c3cc(C(=O)Nc4cc(Cl)cc(NS(C)(=O)=O)c4)cn3C)c(F)c2)C1 [Example 611],65.3,3.8
CN1CC(Oc2cnc(-c3cc(C(=O)Nc4cc(Cl)cc(NS(C)(=O)=O)c4)cn3CC(F)(F)F)nc2)C1 [Example 613],70.3,4.2
Cn1cc(C(=O)Nc2cc(Cl)cc(NS(C)(=O)=O)c2)cc1-c1ncc(OC2CN(CC(F)F)C2)cc1F [Example 614],70.4,14.6
"CNc1cnc(-c2cc(C(=O)Nc3cc(Cl)cc(NS(C)(=O)=O)c3)sc2C)nc1 [Example 616, N-(3-chloro-5-methanesulfonamidophenyl)-5-methyl-4-[5-(methylamino)pyrimidin-2-yl]thiophene-2-carboxamide]",84.2,11.4
Cc1sc(C(=O)Nc2cc(Cl)cc(NS(C)(=O)=O)c2)cc1-c1ncc(C2CCN(CC(F)(F)F)CC2)cc1F [Example 618],66.6,59.2
Cn1cc(C(=O)Nc2cc(Cl)cc(NS(C)(=O)=O)c2)cc1-c1ccc(C2CCN(CC(F)(F)F)CC2)cn1 [Example 619],81.3,178
Cc1sc(C(=O)Nc2cc(Cl)cc(NS(C)(=O)=O)c2)cc1-c1ncccc1OCc1cncc(F)c1 [Example 621],74.4,6.8
CCS(=O)(=O)Nc1cc(Cl)cc(NC(=O)c2cc(-c3ncc(F)cc3OCc3nccs3)c(C)s2)c1 [Example 622],62.9,23
Cc1ccnc(OCc2cncc(F)c2)c1-c1cc(C(=O)Nc2cc(Cl)cc(NS(C)(=O)=O)c2)cn1C [Example 624],97.2,8.9
Cn1cc(C(=O)Nc2cc(Cl)cc(NS(C)(=O)=O)c2)cc1-c1ncc(F)cc1OCc1nnnn1C [Example 625],87.8,12.6
Cc1sc(C(=O)Nc2cc(Cl)cc(NS(=O)(=O)CCO)c2)cc1-c1ncccc1OCc1cncc(F)c1 [Example 626],75.7,4.2
Cn1cc(C(=O)Nc2cc(Cl)cc(NS(C)(=O)=O)c2)cc1-c1ncncc1OCc1cc(F)cc(F)c1 [Example 627],75.8,29.4
Cc1sc(C(=O)Nc2cc(Cl)cc(NS(C)(=O)=O)c2)cc1-c1ncc(OC2CNC2)cc1F [Example 637],71.4,3.4
CN1CC(Oc2cnc(-c3cc(C(=O)Nc4cc(Cl)cc(NS(C)(=O)=O)c4)cn3CC(F)(F)F)c(F)c2)C1 [Example 638],70.5,13.9
"CN1CC[C@H](Oc2cnc(-c3cc(C(=O)Nc4cc(Cl)cc(NS(C)(=O)=O)c4)cn3C)c(F)c2)C1 [Example 639, N-(3-chloro-5-methanesulfonamidophenyl)-5-(3-fluoro-5-{[(3S)-1-methylpyrrolidin-3-yl]oxy}pyridin-2-yl)-1-methylpyrrole-3-carboxamide]",59.7,7.7
CN1CC[C@@H](Oc2cnc(-c3cc(C(=O)Nc4cc(Cl)cc(NS(C)(=O)=O)c4)cn3CC(F)(F)F)nc2)C1 [Example 641],71,9
CN1CC[C@H](Oc2cnc(-c3cc(C(=O)Nc4cc(Cl)cc(NS(C)(=O)=O)c4)cn3CC(F)(F)F)nc2)C1 [Example 642],67.3,19.8
CS(=O)(=O)Nc1cc(Cl)cc(NC(=O)c2cc(C(=O)N3CC4(CNC4)C3)n(-c3ccccn3)c2)c1 [Example 643],61.4,40.8
CC(C)(C)OC(=O)N1CC(n2cc(C(=O)Nc3cc(Cl)cc(NS(C)(=O)=O)c3)cc2-c2ncc(F)cn2)C1 [Example 645],70.8,366
CS(=O)(=O)Nc1cc(Cl)cc(NC(=O)c2cc(-c3ncc(F)cn3)n(C3CNC3)c2)c1 [Example 652],68.1,343
Cn1cc(C(=O)Nc2cc(Cl)cc(NS(C)(=O)=O)c2)cc1-c1ncccc1Oc1cccnc1 [Example 655],67.8,11.4
Cc1sc(C(=O)Nc2cc(Cl)cc(NS(C)(=O)=O)c2)cc1N1C(=O)N(C)C(C)(c2ccccn2)C1=O (centres unmarked) [Example 660],67.1,2120

# The remaining lines, values ahead:
DHX9 Biochemical Max Inhibition,IC50 [nM],Compound
88.7,19.2,Cn1cc(C(=O)Nc2cc(Cl)cc(NS(C)(=O)=O)c2)cc1-c1ncc(N2CC(F)(F)C2)cc1F [Example 599]
92.4,57.8,Cc1cc(N2CCC(F)(F)CC2)cnc1-c1cc(C(=O)Nc2cc(Cl)cc(NS(C)(=O)=O)c2)sc1C [Example 602]
83.4,10.9,CN1C(=O)N(c2ccc(-c3cc(C(=O)Nc4cc(Cl)cc(NS(C)(=O)=O)c4)cn3C)nc2)C(=O)C1(C)C [Example 603]
67.5,24.6,Cc1sc(C(=O)Nc2cc(Cl)cc(NS(C)(=O)=O)c2)cc1-c1ncc(F)cc1-c1ccn(C)c(=O)c1 [Example 605]
75.9,13.1,Cc1sc(C(=O)Nc2cc(Cl)cc(NS(C)(=O)=O)c2)cc1-c1ncc(F)cc1-c1cncc(F)c1 [Example 607]
75.4,7.2,Cc1ncccc1-c1cc(F)cnc1-c1cc(C(=O)Nc2cc(Cl)cc(NS(C)(=O)=O)c2)sc1C [Example 608]
73.9,52.6,Cn1cc(C(=O)Nc2cc(Cl)cc(NS(C)(=O)=O)c2)cc1-c1ncc(OC2CN(CC(F)(F)F)C2)cc1F [Example 615]
94.5,3.9,CCS(=O)(=O)Nc1cc(Cl)cc(NC(=O)c2cc(-c3ncc(F)cc3OCc3cncnc3)c(C)s2)c1 [Example 623]
68.5,2,Cc1sc(C(=O)Nc2cc(Cl)cc(NS(C)(=O)=O)c2)cc1-c1ncc(OC2CN(C)C2)cc1F [Example 635]
70.3,12.2,"Cc1sc(C(=O)Nc2cc(Cl)cc(NS(C)(=O)=O)c2)cc1-c1ncc(OC2CNC2)cn1 [Example 636, 4-[5-(azetidin-3-yloxy)pyrimidin-2-yl]-N-(3-chloro-5-methanesulfonamidophenyl)-5-methylthiophene-2-carboxamide]"
59,7,CN1CC[C@@H](Oc2cnc(-c3cc(C(=O)Nc4cc(Cl)cc(NS(C)(=O)=O)c4)cn3C)c(F)c2)C1 [Example 640]
71.2,95,CS(=O)(=O)Nc1cc(Cl)cc(NC(=O)c2cc(C(=O)N3CCCCC3)n(-c3ccccn3)c2)c1 [Example 644]
66.6,7.9,CN(C)CCOc1cnc(-c2cc(C(=O)Nc3cc(Cl)cc(NS(C)(=O)=O)c3)cn2C)c(F)c1 [Example 646]
72.9,–,Cc1sc(C(=O)Nc2cc(Cl)cc(NS(C)(=O)=O)c2)cc1-c1ccc(P(C)(C)=O)cn1 [Example 647]
69.1,6.9,Cc1sc(C(=O)Nc2cc(Cl)cc(NS(C)(=O)=O)c2)cc1-c1ncc(P(C)(C)=O)cn1 [Example 648]
67.6,50.3,CS(=O)(=O)Nc1cc(Cl)cc(NC(=O)c2cc(C(=O)N3CCN(CC(F)(F)F)CC3)n(-c3ccccn3)c2)c1 [Example 649]
80.6,52.4,CC(C)(O)c1cc(C(=O)Nc2cc(Cl)cc(NS(C)(=O)=O)c2)cn1-c1ccccn1 [Example 650]
59.6,70.6,CS(=O)(=O)Nc1cc(Cl)cc(NC(=O)c2cc(-c3ncc(OC4CN(S(C)(=O)=O)C4)cn3)n(CC(F)(F)F)c2)c1 [Example 651]
75.7,2,Cc1sc(C(=O)Nc2cc(Cl)cc(NS(C)(=O)=O)c2)cc1-c1ncc(C(C)(O)C2CN(C)C2)cc1F (centres unmarked) [Example 653]
72.7,21.6,CS(=O)(=O)Nc1cc(Cl)cc(NC(=O)c2cc(C(=O)N3CCN(c4ccccc4)CC3)n(-c3ccccn3)c2)c1 [Example 654]
71.3,30.7,Cc1cc(C(=O)Nc2cc(Cl)cc(NS(C)(=O)=O)c2)cn1-c1ncc(S(C)(=O)=O)cn1 [Example 656]
71.8,14.7,Cc1cc(C(=O)Nc2cc(Cl)cc(NS(C)(=O)=O)c2)cn1-c1ncc([S+](C)[O-])cn1 (centres unmarked) [Example 657]
73.1,53.9,CSc1cnc(-n2cc(C(=O)Nc3cc(Cl)cc(NS(C)(=O)=O)c3)cc2C)nc1 [Example 658]
50.7,68.8,Cc1cc(F)cc(C#N)c1-c1cc(C(=O)Nc2cc(Cl)cc(NS(C)(=O)=O)c2)cn1C [Example 659]
